Legend:
[1] = tested on: HeLa; experiment: Antiproliferative activity against human HeLa cells assessed as reduction in cell growth at 2 uM incubated for 72 hrs by CCK-8 assay relative to control; format: functional
[2] = tested on: A-375; experiment: Antiproliferative activity against human A375 cells assessed as reduction in cell growth at 2 uM incubated for 72 hrs by CCK-8 assay relative to control; format: functional; details: A-375, 72 h
[3] = tested on: HCT-116; experiment: Antiproliferative activity against human HCT116 cells assessed as reduction in cell growth at 2 uM incubated for 72 hrs by CCK-8 assay relative to control; format: functional; details: HCT-116, 72 h
[4] = tested on: SMMC-7721; experiment: Antiproliferative activity against human SMMC7721 cells assessed as reduction in cell growth at 8 uM incubated for 72 hrs by CCK-8 assay relative to control; format: functional; details: SMMC-7721, 72 h
[5] = tested on: HeLa; experiment: Antiproliferative activity against human HeLa cells assessed as reduction in cell growth at 8 uM incubated for 72 hrs by CCK-8 assay relative to control; format: functional
[6] = tested on: HCT-116; experiment: Antiproliferative activity against human HCT116 cells assessed as reduction in cell growth at 8 uM incubated for 72 hrs by CCK-8 assay relative to control; format: functional; details: HCT-116, 72 h
[7] = tested on: A549; experiment: Antiproliferative activity against human A549 cells assessed as reduction in cell growth at 2 uM incubated for 72 hrs by CCK-8 assay relative to control; format: functional; details: A549, 72 h
[8] = tested on: A549; experiment: Antiproliferative activity against human A549 cells assessed as reduction in cell growth incubated for 72 hrs by CCK-8 assay; format: functional, cell-based; details: A549, 72 h
[9] = tested on: A549; experiment: Antiproliferative activity against human A549 cells assessed as reduction in cell growth at 8 uM incubated for 72 hrs by CCK-8 assay relative to control; format: functional; details: A549, 72 h
[10] = tested on: SMMC-7721; experiment: Antiproliferative activity against human SMMC7721 cells assessed as reduction in cell growth at 2 uM incubated for 72 hrs by CCK-8 assay relative to control; format: functional; details: SMMC-7721, 72 h
[11] = tested on: A-375; experiment: Antiproliferative activity against human A375 cells assessed as reduction in cell growth at 8 uM incubated for 72 hrs by CCK-8 assay relative to control; format: functional; details: A-375, 72 h
[12] = tested on: A-375; experiment: Antiproliferative activity against human A375 cells assessed as reduction in cell growth incubated for 72 hrs by CCK-8 assay; format: functional, cell-based; details: A-375, 72 h
[13] = tested on: SMMC-7721; experiment: Antiproliferative activity against human SMMC7721 cells assessed as reduction in cell growth incubated for 72 hrs by CCK-8 assay; format: functional, cell-based; details: SMMC-7721, 72 h
[14] = tested on: HCT-116; experiment: Antiproliferative activity against human HCT116 cells assessed as reduction in cell growth incubated for 72 hrs by CCK-8 assay; format: functional, cell-based; details: HCT-116, 72 h
[15] = tested on: HeLa; experiment: Antiproliferative activity against human HeLa cells assessed as reduction in cell growth incubated for 72 hrs by CCK-8 assay; format: functional, cell-based

Structure (SMILES)	IC50 [8] [µM]	IC50 [12] [µM]	IC50 [13] [µM]	IC50 [14] [µM]	IC50 [15] [µM]	inhibition at 2 µM [1] [%]	inhibition at 2 µM [2] [%]	inhibition at 2 µM [3] [%]	inhibition at 8 µM [4] [%]	inhibition at 8 µM [5] [%]	inhibition at 8 µM [6] [%]	inhibition at 2 µM [7] [%]	inhibition at 8 µM [9] [%]	inhibition at 2 µM [10] [%]	inhibition at 8 µM [11] [%]
CCCn1c(SCc2ccc(/C=C/C(=O)Nc3ccccc3N)cc2)nc2cc(Cl)ccc2c1=O	3.96					32.7	20.5	18.2	40.2	41.5	27.3	34.3	61.5	6.6	48.2
COc1ccc2c(=O)n(-c3ccccc3C)c(SCc3ccc(C(=O)Nc4ccccc4N)cc3)nc2c1		2.3	5.37	1.29		23.6	39.1	73.5	78.1	33.1	88.2	36.3	54.5	58.2	83.6
Cc1ccc2nc(SCc3ccc(C(=O)Nc4ccccc4N)cc3)n(C)c(=O)c2c1		2.57	1.67	2.01	0.95	63	44.6	49.2	75.7	85.5	79.3	18.2	33.9	65.6	73.6

Continued, in another order:

IC50 [8] [µM]	IC50 [12] [µM]	IC50 [13] [µM]	IC50 [14] [µM]	IC50 [15] [µM]	Structure (SMILES)	inhibition at 2 µM [1] [%]	inhibition at 2 µM [2] [%]	inhibition at 2 µM [3] [%]	inhibition at 8 µM [4] [%]	inhibition at 8 µM [5] [%]	inhibition at 8 µM [6] [%]	inhibition at 2 µM [7] [%]	inhibition at 8 µM [9] [%]	inhibition at 2 µM [10] [%]	inhibition at 8 µM [11] [%]
6.62	2.82		1.59	2.69	COc1ccc2c(=O)n(CC/C=C/[S+](C)[O-])c(SCc3ccc(C(=O)Nc4ccccc4N)cc3)nc2c1 (configuration not stated)	35.8	34.4	59	57.2	74.1	88	36.9	56.3	6.9	67.2
	3.28	0.9	2.71	4.81	Cn1c(SCc2ccc(C(=O)Nc3ccccc3N)cc2)nc2cc(F)ccc2c1=O	39.7	30	51.7	75.1	84.6	79.7	21.3	45	52.5	64.3
20					COc1ccc2c(=O)n(CCCC[S+](C)[O-])c(SCc3ccc(/C=C/C(=O)Nc4ccccc4N)cc3)nc2c1 (configuration not stated)	1.1	13.2	4.5	9.9	41	8.6	53.8	62.7	3.1	18.8
